Experimental data from paper PMC10253498 (RSC Advances, 2023).
Entries after “also recorded” stand apart in the source; their conditions may differ. Marks after values point to notes of the source that are not given here.

Tests used:
[1] = biological target: T1, acetyl cholinesterase (AChE) (Homo sapiens, UniProt P22303); experiment: biochemical
[2] = biological target: T2, monoamine oxidase B (MAO-B, extracted) (Homo sapiens, UniProt P27338); settings: for MAO-B %age inhibition: compounds not above 50% inhibition, test concentration not given
T2 sequence (P27338 1-520): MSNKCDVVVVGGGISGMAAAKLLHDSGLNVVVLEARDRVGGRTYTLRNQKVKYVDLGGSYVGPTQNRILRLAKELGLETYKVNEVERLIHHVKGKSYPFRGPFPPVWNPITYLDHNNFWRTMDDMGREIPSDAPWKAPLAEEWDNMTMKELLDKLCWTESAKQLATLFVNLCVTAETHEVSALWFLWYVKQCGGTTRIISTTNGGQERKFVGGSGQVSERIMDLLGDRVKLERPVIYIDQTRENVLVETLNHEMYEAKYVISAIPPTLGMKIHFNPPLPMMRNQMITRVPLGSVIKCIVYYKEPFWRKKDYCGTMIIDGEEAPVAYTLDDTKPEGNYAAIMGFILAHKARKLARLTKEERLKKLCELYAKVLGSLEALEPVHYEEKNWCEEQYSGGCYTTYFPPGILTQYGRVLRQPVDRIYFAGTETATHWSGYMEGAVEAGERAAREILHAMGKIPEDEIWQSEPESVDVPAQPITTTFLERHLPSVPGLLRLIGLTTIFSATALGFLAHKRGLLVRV

[3] = biological target: T1, acetyl cholinesterase (AChE); settings: for AChE %age inhibition: test concentration not given
[4] = biological target: butyryl cholinesterase (BChE) (Homo sapiens, UniProt P06276); experiment: Butyryl cholinesterase inhibition assay; assay type: biochemical; settings: for BChE %age inhibition: test concentration not given
Chain of butyryl cholinesterase (BChE) (P06276 29-602, species assumed): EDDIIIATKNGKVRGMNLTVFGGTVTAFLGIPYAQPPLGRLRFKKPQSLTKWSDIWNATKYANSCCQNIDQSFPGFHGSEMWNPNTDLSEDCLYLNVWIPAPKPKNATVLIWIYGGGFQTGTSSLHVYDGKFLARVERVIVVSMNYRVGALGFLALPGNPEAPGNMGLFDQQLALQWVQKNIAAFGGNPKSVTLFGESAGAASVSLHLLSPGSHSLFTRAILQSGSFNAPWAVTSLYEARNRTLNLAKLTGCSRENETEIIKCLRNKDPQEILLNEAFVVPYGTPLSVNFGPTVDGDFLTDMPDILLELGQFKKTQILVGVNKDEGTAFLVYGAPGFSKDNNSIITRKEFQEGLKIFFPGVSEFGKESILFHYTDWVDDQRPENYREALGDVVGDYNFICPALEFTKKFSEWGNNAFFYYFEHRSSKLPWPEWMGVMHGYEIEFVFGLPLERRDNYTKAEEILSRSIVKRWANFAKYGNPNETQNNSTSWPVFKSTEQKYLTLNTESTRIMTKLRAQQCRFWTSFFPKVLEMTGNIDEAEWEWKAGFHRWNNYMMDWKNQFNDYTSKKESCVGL

[5] = biological target: T3, monoamine oxidase A (MAO-A, extracted) (Homo sapiens, UniProt P21397); settings: for MAO-A %age inhibition: compounds not above 50% inhibition, test concentration not given
T3 sequence (P21397 1-527): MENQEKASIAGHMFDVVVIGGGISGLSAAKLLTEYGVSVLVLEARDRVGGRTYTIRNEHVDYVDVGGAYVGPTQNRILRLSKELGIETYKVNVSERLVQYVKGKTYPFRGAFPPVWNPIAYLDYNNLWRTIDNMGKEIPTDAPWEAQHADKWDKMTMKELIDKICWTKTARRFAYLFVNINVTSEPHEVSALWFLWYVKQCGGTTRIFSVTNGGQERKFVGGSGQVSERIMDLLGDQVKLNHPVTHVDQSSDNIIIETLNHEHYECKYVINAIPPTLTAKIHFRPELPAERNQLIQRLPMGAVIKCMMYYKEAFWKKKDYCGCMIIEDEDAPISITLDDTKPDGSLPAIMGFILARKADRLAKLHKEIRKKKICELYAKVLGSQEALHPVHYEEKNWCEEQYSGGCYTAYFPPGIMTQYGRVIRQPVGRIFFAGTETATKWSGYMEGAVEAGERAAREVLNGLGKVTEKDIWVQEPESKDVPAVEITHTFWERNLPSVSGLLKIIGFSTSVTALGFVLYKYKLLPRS

[6] = biological target: T2, monoamine oxidase B (MAO-B, extracted); experiment: biochemical
Protocol: (§1) Newly synthesized compounds were tested on monoamine oxidase A and B (extracted). […] Reaction mixture was composed of 100 μL of total assay volume having 30 μL buffer (pH 7.4), 10 μL test compounds, 10 μL of extracted enzyme (MAO-A: 13 μg mL^−1, MAO-B: 15 μg mL^−1), 30 μL of amplex red and 20 μL of substrate (p-tyramine). Initially reaction mixture having buffer + test compound + enzyme was incubated for 15 minutes for MAO-A And MAO-B. After Incubation the amplex red reagent was added followed by addition of substrate p-tyramine. The change in the fluorescence was determined by using fluorescence plate reader: FLUOstar® Omega (BMG Labtech GmbH, orten berg Germany). […] All experiments were performed in triplicate. IC50 values were calculated by non-linear curve fitting program PRISM 5.0 (GraphPad, San Diego, California, USA) where log inhibitor vs. response curve was generated.

[7] = biological target: T3, monoamine oxidase A (MAO-A, extracted); experiment: biochemical
Protocol: as §1

T1 sequence (P22303 32-614, species assumed): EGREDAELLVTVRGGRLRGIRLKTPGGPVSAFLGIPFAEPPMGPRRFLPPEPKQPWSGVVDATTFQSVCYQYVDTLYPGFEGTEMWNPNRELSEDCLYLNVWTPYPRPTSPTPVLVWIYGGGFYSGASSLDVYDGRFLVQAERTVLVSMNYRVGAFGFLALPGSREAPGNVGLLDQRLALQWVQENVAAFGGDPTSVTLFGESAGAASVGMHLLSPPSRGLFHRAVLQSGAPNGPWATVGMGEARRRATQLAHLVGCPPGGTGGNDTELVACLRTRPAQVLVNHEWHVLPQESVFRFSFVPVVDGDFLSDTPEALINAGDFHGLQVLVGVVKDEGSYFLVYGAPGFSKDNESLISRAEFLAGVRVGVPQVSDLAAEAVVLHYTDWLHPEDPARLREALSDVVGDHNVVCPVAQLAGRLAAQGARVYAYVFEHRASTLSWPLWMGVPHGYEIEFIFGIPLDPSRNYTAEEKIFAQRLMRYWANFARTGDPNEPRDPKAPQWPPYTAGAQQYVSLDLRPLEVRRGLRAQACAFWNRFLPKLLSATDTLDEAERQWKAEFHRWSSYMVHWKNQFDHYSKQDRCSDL

Row | SMILES | IC50 [1] [nM] | MAO-B %age inhibition [2] | inhibition against AChE (in words) [3] | BChE %age inhibition [4] [% ^c] | inhibition against MAO-A (in words) [5] | MAO-A %age inhibition [5] | AChE %age inhibition [3] [% ^c] | IC50 [6] [nM] | IC50 [7] [nM] | inhibition against MAO-B (in words) [2] | inhibition against BChE (in words) [4]
1 | Cc1ccc(F)c(-c2nnc(Nc3ccccc3F)o2)c1 [Compound 4h, 5-(2-Fluoro-5-methylphenyl)-N-(2-fluorophenyl)-1,3,4-oxadiazol-2-amine] | 1510 ± 462 | 29.36 ^c % | potent inhibition | 12.43 | weak inhibition | 21.87 ^c % | – | – | – | – | –
2 | Fc1cc(F)cc(Cc2nnc(Nc3ccccc3F)o2)c1 [Compound 4f, 5-(3,5-Difluorobenzyl)-N-(2-fluorophenyl)-1,3,4-oxadiazol-2-amine] | 2030 ± 434 | 39.46 ^c % | potent inhibition | 22.61 | weak inhibition | 34.82 ^c % | – | – | – | – | –
3 | Fc1ccccc1Nc1nnc(-c2ccc(C(F)(F)F)cc2)o1 [Compound 4i, N-(2-Fluorophenyl)-5-(4-(trifluoromethyl)phenyl)-1,3,4-oxadiazol-2-amine] | – | 32.53 ^c % | potent inhibition; also recorded: moderate to weak inhibition | 21.45 | weak inhibition | 38.11 ^c % | 37.12 | – | – | – | –
4 | Fc1cc(F)cc(Cc2nnc(Nc3ccc(F)cc3F)o2)c1 [Compound 4g, N-(2,4-Difluorophenyl)-5-(3,5-difluorobenzyl)-1,3,4-oxadiazol-2-amine] | 1110 ± 80 | – | – | 15.23 | potent inhibition | – | – | 2020 ± 1260 | 1210 ± 40 | strong inhibition | –
5 | FC(F)(F)c1ccc(-c2nnc(Nc3ccc(Br)cc3)o2)cc1 [Compound 4l, N-(4-Bromophenyl)-5-(4-(trifluoromethyl)phenyl)-1,3,4-oxadiazol-2-amine] | – | 24.86 ^c % | moderate to weak inhibition; also recorded: demolished the activity | 26.91 | weak inhibition; also recorded: demolished the activity | 36.81 ^c % | 44.56 | – | – | demolished the activity | demolished the activity
6 | Cc1ccc(Nc2nnc(-c3cccc(F)c3)o2)c(C)c1 [Compound 4e, N-(2,4-Dimethylphenyl)-5-(3-fluorophenyl)-1,3,4-oxadiazol-2-amine] | 1960 ± 176 | – | potent inhibition | 10.54 | potent inhibition | – | – | 1910 ± 890 | 1470 ± 450 | strong inhibition | –
7 | CC(C)c1ccc(Nc2nnc(-c3ccc(C(F)(F)F)cc3)o2)cc1 [Compound 4m, N-(4-Isopropylphenyl)-5-(4-(trifluoromethyl)phenyl)-1,3,4-oxadiazol-2-amine] | – | – | – | 15.78 | potent inhibition | – | – | – | 110 ± 1 | strong inhibition | –
8 | N#Cc1cccc(Nc2nnc(-c3ccncc3)o2)c1 [Compound 4j, 3-((5-(Pyridin-4-yl)-1,3,4-oxadiazol-2-yl)amino)benzonitrile] | 1560 ± 309 | 18.57 ^c % | potent inhibition | 20.55 | potent inhibition | – | – | – | 1020 ± 90 | lost its inhibitory effects | –
9 | Cc1ccc(Nc2nnc(-c3ccncc3)o2)c(C)c1 [Compound 4k, N-(2,4-Dimethylphenyl)-5-(pyridin-4-yl)-1,3,4-oxadiazol-2-amine] | – | – | moderate to weak inhibition; also recorded: lost its inhibitory effects | 14.67 | potent inhibition | – | 39.65 | 1100 ± 1160 | 3460 ± 2580 | strong inhibition; also recorded: restored its inhibitory effects | –
10 | Fc1ccccc1Nc1nnc(Cc2ccccc2C(F)(F)F)o1 [Compound 4c, N-(2-Fluorophenyl)-5-(2-(trifluoromethyl)benzyl)-1,3,4-oxadiazol-2-amine] | – | – | – | 14.76 | potent inhibition | – | – | – | 1900 ± 250 | strong inhibition | –
11 | Cc1c(F)cccc1-c1nnc(Nc2ccccc2)o1 [Compound 4o, 5-(3-Fluoro-2-methylphenyl)-N-phenyl-1,3,4-oxadiazol-2-amine] | 2320 ± 80 | 22.65 ^c % | – | 32.98 | – | 29.98 ^c % | – | – | – | – | –
12 | N#Cc1cccc(Nc2nnc(Cc3ccccc3C(F)(F)F)o2)c1 [Compound 4b, 3-((5-(2-(Trifluoromethyl)benzyl)-1,3,4-oxadiazol-2-yl)amino)benzonitrile] | – | 35.73 ^c % | moderate to weak inhibition | 23.65 | – | – | 31.34 | – | 2860 ± 1510 | – | –
13 | N#Cc1cccc(Nc2nnc(-c3ccc(C(F)(F)F)cc3)o2)c1 [Compound 4a, 3-((5-(4-(Trifluoromethyl)phenyl)-1,3,4-oxadiazol-2-yl)amino)benzonitrile] | – | 37.06 ^c % | moderate to weak inhibition | 20.54 | weak inhibition | 33.23 ^c % | 42.32 | – | – | – | –
14 | c1ccc(Nc2nnc(-c3ccncc3)o2)cc1 [Compound 4d, N-Phenyl-5-(pyridin-4-yl)-1,3,4-oxadiazol-2-amine] | – | – | – | 23.67 | potent inhibition; also recorded: promising inhibitory effects | – | – | – | 1440 ± 220 | strong inhibition; also recorded: promising inhibitory effects | –
15 | Cc1ccccc1Nc1nnc(-c2ccccc2)o1 [Compound 4n, 5-Phenyl-N-(o-tolyl)-1,3,4-oxadiazol-2-amine] | – | 18.47 ^c % | – | 28.87 | weak inhibition | 21.07 ^c % | – | – | – | – | –
